Assay results published in US20080292584A1 (priority 2005, published 2008).
Several values for one entry are separate records, joined by “and”; a condition that tells them apart may be missing. Equal entries are not always repeated. Where two headings read alike, the source gives them in different places.

Columns and labels:
CYP2D6 = CYP2D6 (Homo sapiens, UniProt P10635); test: Inhibition of CYP2D6 activity in pooled human liver microsomes (dextromethorphan 5 μM to dextrorphan); type: in vitro ADME
Chain of CYP2D6 (P10635 whole entry): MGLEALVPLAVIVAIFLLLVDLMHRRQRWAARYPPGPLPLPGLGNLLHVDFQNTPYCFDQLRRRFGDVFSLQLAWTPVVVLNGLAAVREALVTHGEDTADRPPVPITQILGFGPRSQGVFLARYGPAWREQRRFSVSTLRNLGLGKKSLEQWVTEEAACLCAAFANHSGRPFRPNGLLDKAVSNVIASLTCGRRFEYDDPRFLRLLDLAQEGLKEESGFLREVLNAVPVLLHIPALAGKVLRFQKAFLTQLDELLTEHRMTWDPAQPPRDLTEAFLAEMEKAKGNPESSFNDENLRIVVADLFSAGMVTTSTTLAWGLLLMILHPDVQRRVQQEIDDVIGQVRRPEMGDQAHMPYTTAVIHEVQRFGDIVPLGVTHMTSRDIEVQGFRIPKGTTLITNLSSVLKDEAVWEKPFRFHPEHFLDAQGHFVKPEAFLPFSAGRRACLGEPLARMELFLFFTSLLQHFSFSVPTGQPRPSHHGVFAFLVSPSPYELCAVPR
Experimental: All other incubations were for 30 minutes.
Four replicates were performed.
Two replicates were performed.

CYP3A4 = CYP3A4 (Homo sapiens, UniProt P08684); test: Induction/inhibition of CYP3A4 activity in cryopreserved human hepatocytes (testosterone)
Chain of CYP3A4 (P08684 whole entry): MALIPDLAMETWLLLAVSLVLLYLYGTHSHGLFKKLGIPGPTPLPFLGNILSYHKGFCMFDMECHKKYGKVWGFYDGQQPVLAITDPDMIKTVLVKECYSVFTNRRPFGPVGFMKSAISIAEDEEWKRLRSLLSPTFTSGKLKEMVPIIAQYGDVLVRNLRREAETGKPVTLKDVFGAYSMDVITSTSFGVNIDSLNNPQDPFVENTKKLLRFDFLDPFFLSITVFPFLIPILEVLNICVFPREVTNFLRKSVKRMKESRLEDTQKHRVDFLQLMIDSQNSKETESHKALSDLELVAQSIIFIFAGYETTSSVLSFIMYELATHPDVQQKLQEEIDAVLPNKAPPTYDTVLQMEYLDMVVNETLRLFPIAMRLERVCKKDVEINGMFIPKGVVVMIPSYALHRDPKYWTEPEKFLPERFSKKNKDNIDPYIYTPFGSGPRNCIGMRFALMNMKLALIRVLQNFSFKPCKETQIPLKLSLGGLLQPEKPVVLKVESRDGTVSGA
Text: Hepatocytes from three human donors were obtained from a cryopreserved hepatocyte bank (In Vitro Technologies, Inc., USA). After thawing, viable hepatocytes were transferred to collagen-coated 48-well plates for attachment in plating medium (DMEM stock (Dulbecco's modified Eagle's medium, supplemented with bovine serum albumin, fructose, N-(2-hydroxyethyl)piperazine-N′-(2-ethanesulfonate) (HEPES), and sodium bicarbonate), supplemented with antibiotics, bovine serum, hydrocortisone, insulin and minimum essential medium (MEM) nonessential amino acids). After attachment to the collagen matrix, plating medium was replaced with sandwich medium (plating medium supplemented with VITROGEN) and incubated until use.
The supplemented KHB was replaced with 150 μL supplemented KHB containing the appropriate isoform-selective substrate and incubated for 4 hrs prior to termination by adding 150 μL ice-cold methanol, except for the CYP2C8 incubations which were terminated by adding 150 μL acetonitrile.
All substrates were dissolved in acetonitrile.
Replicate trials and controls were performed. […] Additionally, reference control samples were included to evaluate inducibility of CYP2B6, CYP2C9, and CYP2C19 in the test system.
Mean specific activity values with associated p-values≦0.05 were deemed to be statistically significant.

CYP1A2 = target: T1, CYP1A2 (Homo sapiens, UniProt P05177); conditions: both, pH 7.4; for Mean Conc.: 60 min; for % Turnover Mean: microsomes, 1 h
T1 sequence (P05177 1-516): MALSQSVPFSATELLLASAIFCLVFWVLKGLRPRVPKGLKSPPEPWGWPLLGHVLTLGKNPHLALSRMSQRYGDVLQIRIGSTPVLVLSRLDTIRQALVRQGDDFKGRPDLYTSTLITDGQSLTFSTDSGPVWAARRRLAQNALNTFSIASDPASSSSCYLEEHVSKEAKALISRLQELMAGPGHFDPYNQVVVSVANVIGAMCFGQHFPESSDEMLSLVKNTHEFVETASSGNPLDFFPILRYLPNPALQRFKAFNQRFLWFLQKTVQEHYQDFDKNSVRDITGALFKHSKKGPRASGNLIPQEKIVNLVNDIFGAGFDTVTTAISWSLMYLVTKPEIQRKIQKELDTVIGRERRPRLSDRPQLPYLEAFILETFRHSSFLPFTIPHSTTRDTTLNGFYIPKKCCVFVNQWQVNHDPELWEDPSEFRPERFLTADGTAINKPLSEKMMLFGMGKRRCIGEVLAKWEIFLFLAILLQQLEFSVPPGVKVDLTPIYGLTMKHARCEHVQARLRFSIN
Experimental: (§1) Human liver microsomes pooled from 15 individuals (male and female) (Pool HMMC-PL020; CellzDirect, Inc., In Vitro Products and Services Division) were used in some experiments of this study.
(§2) % Turnover=100−{[TA(final)]/[mean of TA(0 min)]}×100,
(§3) % Inhibition of Turnover=100{1−([TA(0 min)]−[TA(final-inhibitor)])/([TA(0 min)]−[TA(final-no inhibitor)])}.
(§4) The inhibitors or vehicle control were incubated with the pooled human liver microsomes (1 mg/mL) and NADPH (1 mM) in 0.1 M phosphate buffer, pH 7.4. […] Incubations were conducted in triplicate and terminated by addition of organic solvent. Samples were extracted and analyzed by LC-MS/MS as described above.

[1] = in vivo; Bruce et al. 1966; cited from earlier work
CYP2C19 [2] = target: T2, CYP2C19 (Homo sapiens, UniProt P33261); test: in vitro; conditions: pooled human liver microsomes, probe S-mephenytoin 50 μM (to 4′-hydroxy mephenytoin)
T2 sequence (P33261 whole entry): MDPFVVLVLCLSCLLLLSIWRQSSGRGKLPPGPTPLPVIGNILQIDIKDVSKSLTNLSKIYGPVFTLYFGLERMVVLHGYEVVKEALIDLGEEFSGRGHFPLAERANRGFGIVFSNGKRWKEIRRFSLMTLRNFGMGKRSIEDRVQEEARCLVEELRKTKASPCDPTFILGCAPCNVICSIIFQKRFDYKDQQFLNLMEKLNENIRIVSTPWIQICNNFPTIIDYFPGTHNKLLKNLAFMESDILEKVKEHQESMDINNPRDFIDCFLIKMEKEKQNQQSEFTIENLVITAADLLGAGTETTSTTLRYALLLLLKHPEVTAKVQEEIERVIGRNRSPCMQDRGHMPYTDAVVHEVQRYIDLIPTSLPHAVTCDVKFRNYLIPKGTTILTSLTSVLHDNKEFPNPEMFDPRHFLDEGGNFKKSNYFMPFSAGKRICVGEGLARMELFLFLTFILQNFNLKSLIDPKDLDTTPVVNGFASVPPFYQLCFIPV
Experimental: Microsomes were prepared by differential centrifugation of liver homogenates pooled from at least ten human donors.
After a 5 minute preincubation, NADPH regenerating system (NRS) was added to initiate the reaction. CYP2A6 and CYP3A4 incubations were for 10 minutes. All other incubations were for 30 minutes.
Incubations for CYP2C8 were terminated by adding 1.0 mL of ACN, while all other incubations were terminated by adding 1.0 mL of methanol.
Vehicle control experiments were performed to establish a baseline value for enzyme activity. […] Four replicates were performed.
Two replicates were performed. […] No interference was detected in any of the metabolite assay methods used.

CYP2C19 [3] = target: T2, CYP2C19; test: Metabolism of metaxalone by expressed recombinant human CYP2C19 at 5 or 20 pmol (Example 4); conditions: for percent turnover / % Turnover Mean / [metaxalone] Mean / % Turnover % / [metaxalone]: 60 min; for % Turnover % / [metaxalone]: single replicates, listed as Metaxalone
CYP2E1 = CYP2E1 (Homo sapiens, UniProt P05181); test: Chemical inhibition of metaxalone turnover in human liver microsomes, CYP2E1 inhibitor clomethiazole; conditions: 1 mg/mL HLM, 60 min, with clomethiazole; for % Turnover / % inhibition of turnover / Conc.: single replicates
Chain of CYP2E1 (P05181 whole entry): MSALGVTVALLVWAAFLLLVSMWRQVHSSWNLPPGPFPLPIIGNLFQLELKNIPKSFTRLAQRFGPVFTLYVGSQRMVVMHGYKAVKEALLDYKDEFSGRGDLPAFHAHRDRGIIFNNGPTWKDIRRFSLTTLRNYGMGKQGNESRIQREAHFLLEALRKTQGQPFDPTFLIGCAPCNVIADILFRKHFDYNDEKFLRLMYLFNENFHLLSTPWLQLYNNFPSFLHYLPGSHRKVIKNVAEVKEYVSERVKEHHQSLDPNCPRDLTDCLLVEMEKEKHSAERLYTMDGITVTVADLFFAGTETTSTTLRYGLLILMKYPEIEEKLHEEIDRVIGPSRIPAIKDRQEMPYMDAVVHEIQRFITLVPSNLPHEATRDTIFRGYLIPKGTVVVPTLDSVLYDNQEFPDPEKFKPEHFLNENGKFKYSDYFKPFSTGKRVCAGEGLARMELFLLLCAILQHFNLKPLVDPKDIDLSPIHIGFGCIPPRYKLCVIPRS
Experimental: as §1, §2, §3, §4

[4] = 0.75 μM metaxalone, 20 pmol cyp

Cc1cc(C)cc(OCC2CNC(=O)O2)c1 (stereo not drawn) [metaxalone, 5-[(3,5-dimethylphenoxy)methyl]-2-oxazolidinone]
inhibition of CYP activity at a statistically significant level (CYP2D6; 0.3-100 μM metaxalone, p≦0.05): inhibited
Inhibitor (CYP2D6; CYP isozyme 2D6, summary of studies): +
Percent of VC (CYP2D6; metaxalone 0.3 μM): 81.3%
Specific Activity Individual (CYP2D6; metaxalone 0.3 μM): 39.5 pmol/min/mg protein and 39.2 pmol/min/mg protein and 40.5 pmol/min/mg protein
Specific Activity Mean ± SD (CYP2D6; metaxalone 0.3 μM): 39.8 ± 0.688 pmol/min/mg protein
Percent of VC (CYP2D6; metaxalone 1 μM): 84.2%
Specific Activity Individual (CYP2D6; metaxalone 1 μM): 42.4 pmol/min/mg protein and 41.3 pmol/min/mg protein
Specific Activity Mean ± SD (CYP2D6; metaxalone 1 μM): 41.2 ± 1.28 pmol/min/mg protein
Percent of VC (CYP2D6; metaxalone 3 μM): 89.3%
Specific Activity Individual (CYP2D6; metaxalone 3 μM): 43.0 pmol/min/mg protein and 44.8 pmol/min/mg protein
Specific Activity Mean ± SD (CYP2D6; metaxalone 3 μM): 43.7 ± 0.940 pmol/min/mg protein
Percent of VC (CYP2D6; metaxalone 30 μM): 85.1%
Specific Activity Individual (CYP2D6; metaxalone 30 μM): 41.4 pmol/min/mg protein and 42.6 pmol/min/mg protein and 40.9 pmol/min/mg protein
Specific Activity Mean ± SD (CYP2D6; metaxalone 30 μM): 41.6 ± 0.893 pmol/min/mg protein
Percent of VC (CYP2D6; metaxalone 100 μM): 85.9%
Specific Activity Individual (CYP2D6; metaxalone 100 μM): 42.6 pmol/min/mg protein and 41.3 pmol/min/mg protein and 42.2 pmol/min/mg protein
Specific Activity Mean ± SD (CYP2D6; metaxalone 100 μM): 42.0 ± 0.680 pmol/min/mg protein
Inducer/Inhibitor (CYP3A4): +
Specific Activity Mean ± SD (CYP3A4; Donor 2, Metaxalone 0.4 μM): 1.20 ± 0.109 pmol/min/million cells
6β-Hydroxytestosterone formation Adjusted Mean ± SD (CYP3A4; human): 0.116 ± 0.00524 µM
Specific Activity Mean ± SD (CYP3A4; human): <0.905 ± 0.0213 pmol/min/million cells
6β-Hydroxytestosterone formation Adjusted Mean ± SD (CYP3A4; human, 4 h, 4 μM): <0.100 ± 0.000 µM
Specific Activity Mean ± SD (CYP3A4; human, 48 h, 0.4 μM): <0.893 ± 0.000 pmol/min/million cells
effect on CYP3A4 activity (CYP3A4; human, hepatocytes, 48 h): did not induce CYP3A4 activity
induced CYP3A4 activity (CYP3A4; human, hepatocytes, 48 h, 40 μM): about 21%
Mean Conc. (CYP1A2; 0.75 μM): 0.797 µM
Mean Conc. (CYP1A2; 7.5 μM): 8.11 µM
% Turnover Mean (CYP1A2; 0.75 μM): −3.29%
% Turnover Mean (CYP1A2; 7.5 μM): 4.77%
metaxalone converted to a carboxylic acid derivative [1]: 27%
inhibition at 30 min, 100 μM (CYP2C19 [2]): 35.1%
percent turnover (CYP2C19 [3]; 0.75 μM metaxalone, 5 pmol CYP450): 6.9%
% Turnover Mean (CYP2C19 [3]; 0.75 μM metaxalone, 5 pmol cyp): 6.9%
[metaxalone] Mean (CYP2C19 [3]; 0.75 μM metaxalone, 5 pmol cyp): 0.662 µM
% Turnover % (CYP2C19 [3]; 0.75 μM metaxalone, 5 pmol cyp): 2.2% and 7.6% and 11.0%
[metaxalone] (CYP2C19 [3]; 0.75 μM metaxalone, 5 pmol cyp): 0.696 µM and 0.658 µM and 0.634 µM
percent turnover (CYP2C19 [3]; 0.75 μM metaxalone, 20 pmol CYP450): 12.5%
% Turnover Mean (CYP2C19 [3]; [4]): 12.5%
[metaxalone] Mean (CYP2C19 [3]; [4]): 0.623 µM
% Turnover % (CYP2C19 [3]; [4]): 7.4% and 13.3% and 16.9%
[metaxalone] (CYP2C19 [3]; [4]): 0.659 µM and 0.618 µM and 0.591 µM
percent turnover (CYP2C19 [3]; 7.5 μM metaxalone, 5 pmol CYP450): 6.3%
% Turnover Mean (CYP2C19 [3]; 7.5 μM metaxalone, 5 pmol cyp): 6.3%
[metaxalone] Mean (CYP2C19 [3]; 7.5 μM metaxalone, 5 pmol cyp): 7.23 µM
% Turnover % (CYP2C19 [3]; 7.5 μM metaxalone, 5 pmol cyp): 0.25% and 7.1% and 11.6%
[metaxalone] (CYP2C19 [3]; 7.5 μM metaxalone, 5 pmol cyp): 7.69 µM and 7.17 µM and 6.82 µM
percent turnover (CYP2C19 [3]; 7.5 μM metaxalone, 20 pmol CYP450): 18.7%
% Turnover Mean (CYP2C19 [3]; 7.5 μM metaxalone, 20 pmol cyp): 18.7%
[metaxalone] Mean (CYP2C19 [3]; 7.5 μM metaxalone, 20 pmol cyp): 6.27 µM
% Turnover % (CYP2C19 [3]; 7.5 μM metaxalone, 20 pmol cyp): 20.2% and 18.0% and 17.8%
[metaxalone] (CYP2C19 [3]; 7.5 μM metaxalone, 20 pmol cyp): 6.16 µM and 6.32 µM and 6.34 µM
Substrate (CYP2C19 [3]; CYP isozyme 2C19, summary of studies): +
% inhibition of turnover Mean (CYP2E1; 0.75 μM metaxalone): 113%
Mean Conc. (CYP2E1; 0.75 μM metaxalone): 0.802 µM
% Turnover (CYP2E1; 0.75 μM metaxalone): 5.6%
% inhibition of turnover (CYP2E1; 0.75 μM metaxalone): 104% and 154% and 81.4%
Conc. (CYP2E1; 0.75 μM metaxalone): 0.780 µM and 0.896 µM and 0.729 µM
% Turnover Mean (CYP2E1; 7.5 μM metaxalone): 0.356%
% inhibition of turnover Mean (CYP2E1; 7.5 μM metaxalone): 98.6%
Mean Conc. (CYP2E1; 7.5 μM metaxalone): 8.48 µM
% Turnover (CYP2E1; 7.5 μM metaxalone): 2.7%
% inhibition of turnover (CYP2E1; 7.5 μM metaxalone): 89.2% and 101% and 105%
Conc. (CYP2E1; 7.5 μM metaxalone): 8.29 µM and 8.54 µM and 8.63 µM
